Assay in all cases: cell-based
Experiment [1] deals with hNav1.4 (Homo sapiens, UniProt P35499). Particulars: for IC50: PatchXpress, read-out: PX hNav1.4 Tonic IC50.
Experiment [2] has as its target hNav1.5 (Homo sapiens, UniProt Q14524).
The target of experiment [3] is hNav1.7 (Homo sapiens, UniProt Q15858). Format: cell-based. Particulars: PatchXpress, read-out: PX hNav1.7 Tonic IC50.
Setting [4] is: * = at high concentrations compound would wash off slowly or not at all.

Where “and” joins values, the source holds several entries; their conditions need not be identical. Equal values may be shown once. Read-outs that look alike come from different tables or passages of the source.

By IC50 is commonly meant the concentration needed to halve the response being measured.

hNav1.5, sequence (Q14524 whole entry): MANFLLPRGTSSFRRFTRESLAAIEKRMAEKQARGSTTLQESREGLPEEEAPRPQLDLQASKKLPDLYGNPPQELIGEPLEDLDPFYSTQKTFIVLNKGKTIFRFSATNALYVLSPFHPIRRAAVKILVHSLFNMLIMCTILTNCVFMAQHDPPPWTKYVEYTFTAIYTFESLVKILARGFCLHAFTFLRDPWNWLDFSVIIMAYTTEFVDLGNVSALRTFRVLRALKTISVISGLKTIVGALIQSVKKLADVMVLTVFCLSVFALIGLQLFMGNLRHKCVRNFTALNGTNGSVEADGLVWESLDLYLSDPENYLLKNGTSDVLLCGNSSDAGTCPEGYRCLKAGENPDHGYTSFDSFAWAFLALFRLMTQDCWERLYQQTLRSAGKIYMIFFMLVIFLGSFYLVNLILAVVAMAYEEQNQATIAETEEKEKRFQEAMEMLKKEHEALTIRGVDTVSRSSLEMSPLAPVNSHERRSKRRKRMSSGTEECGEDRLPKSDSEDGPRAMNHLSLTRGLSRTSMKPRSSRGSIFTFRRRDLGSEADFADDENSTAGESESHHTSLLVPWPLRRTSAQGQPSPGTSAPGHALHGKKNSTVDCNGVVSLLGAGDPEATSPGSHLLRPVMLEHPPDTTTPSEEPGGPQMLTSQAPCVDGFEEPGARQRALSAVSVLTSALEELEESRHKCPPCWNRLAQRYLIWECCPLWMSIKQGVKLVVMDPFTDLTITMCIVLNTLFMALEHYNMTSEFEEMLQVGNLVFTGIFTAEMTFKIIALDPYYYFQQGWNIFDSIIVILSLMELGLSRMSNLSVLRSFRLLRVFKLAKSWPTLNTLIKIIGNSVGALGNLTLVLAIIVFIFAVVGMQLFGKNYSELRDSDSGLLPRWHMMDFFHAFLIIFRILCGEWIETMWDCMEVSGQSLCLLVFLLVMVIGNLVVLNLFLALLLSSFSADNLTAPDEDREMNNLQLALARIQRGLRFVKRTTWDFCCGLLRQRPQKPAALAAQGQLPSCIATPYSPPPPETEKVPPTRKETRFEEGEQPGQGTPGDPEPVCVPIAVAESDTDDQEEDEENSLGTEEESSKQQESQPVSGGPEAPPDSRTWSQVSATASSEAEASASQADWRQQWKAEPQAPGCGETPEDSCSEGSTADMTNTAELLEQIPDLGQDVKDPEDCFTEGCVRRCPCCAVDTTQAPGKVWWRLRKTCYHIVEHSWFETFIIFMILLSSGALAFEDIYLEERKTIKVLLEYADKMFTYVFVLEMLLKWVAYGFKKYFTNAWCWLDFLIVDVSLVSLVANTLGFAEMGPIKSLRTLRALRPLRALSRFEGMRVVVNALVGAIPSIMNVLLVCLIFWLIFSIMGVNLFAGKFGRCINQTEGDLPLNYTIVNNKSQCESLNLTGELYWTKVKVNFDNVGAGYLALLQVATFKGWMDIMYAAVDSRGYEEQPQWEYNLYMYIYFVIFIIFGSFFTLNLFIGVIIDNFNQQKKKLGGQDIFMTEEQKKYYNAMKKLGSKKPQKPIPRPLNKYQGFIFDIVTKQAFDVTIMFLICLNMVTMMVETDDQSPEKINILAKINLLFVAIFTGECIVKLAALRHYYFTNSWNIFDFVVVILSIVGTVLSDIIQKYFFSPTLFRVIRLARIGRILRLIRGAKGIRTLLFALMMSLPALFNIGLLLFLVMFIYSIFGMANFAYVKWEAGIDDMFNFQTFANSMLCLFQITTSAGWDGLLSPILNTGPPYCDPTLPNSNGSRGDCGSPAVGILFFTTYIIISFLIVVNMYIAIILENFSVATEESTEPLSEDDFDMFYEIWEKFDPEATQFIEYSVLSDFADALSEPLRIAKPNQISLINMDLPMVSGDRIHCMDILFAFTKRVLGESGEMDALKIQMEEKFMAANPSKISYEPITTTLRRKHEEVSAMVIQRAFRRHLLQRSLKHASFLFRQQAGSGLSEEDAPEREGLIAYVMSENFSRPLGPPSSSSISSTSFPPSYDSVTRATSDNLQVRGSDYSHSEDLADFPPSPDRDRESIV
hNav1.7, sequence (Q15858 whole entry): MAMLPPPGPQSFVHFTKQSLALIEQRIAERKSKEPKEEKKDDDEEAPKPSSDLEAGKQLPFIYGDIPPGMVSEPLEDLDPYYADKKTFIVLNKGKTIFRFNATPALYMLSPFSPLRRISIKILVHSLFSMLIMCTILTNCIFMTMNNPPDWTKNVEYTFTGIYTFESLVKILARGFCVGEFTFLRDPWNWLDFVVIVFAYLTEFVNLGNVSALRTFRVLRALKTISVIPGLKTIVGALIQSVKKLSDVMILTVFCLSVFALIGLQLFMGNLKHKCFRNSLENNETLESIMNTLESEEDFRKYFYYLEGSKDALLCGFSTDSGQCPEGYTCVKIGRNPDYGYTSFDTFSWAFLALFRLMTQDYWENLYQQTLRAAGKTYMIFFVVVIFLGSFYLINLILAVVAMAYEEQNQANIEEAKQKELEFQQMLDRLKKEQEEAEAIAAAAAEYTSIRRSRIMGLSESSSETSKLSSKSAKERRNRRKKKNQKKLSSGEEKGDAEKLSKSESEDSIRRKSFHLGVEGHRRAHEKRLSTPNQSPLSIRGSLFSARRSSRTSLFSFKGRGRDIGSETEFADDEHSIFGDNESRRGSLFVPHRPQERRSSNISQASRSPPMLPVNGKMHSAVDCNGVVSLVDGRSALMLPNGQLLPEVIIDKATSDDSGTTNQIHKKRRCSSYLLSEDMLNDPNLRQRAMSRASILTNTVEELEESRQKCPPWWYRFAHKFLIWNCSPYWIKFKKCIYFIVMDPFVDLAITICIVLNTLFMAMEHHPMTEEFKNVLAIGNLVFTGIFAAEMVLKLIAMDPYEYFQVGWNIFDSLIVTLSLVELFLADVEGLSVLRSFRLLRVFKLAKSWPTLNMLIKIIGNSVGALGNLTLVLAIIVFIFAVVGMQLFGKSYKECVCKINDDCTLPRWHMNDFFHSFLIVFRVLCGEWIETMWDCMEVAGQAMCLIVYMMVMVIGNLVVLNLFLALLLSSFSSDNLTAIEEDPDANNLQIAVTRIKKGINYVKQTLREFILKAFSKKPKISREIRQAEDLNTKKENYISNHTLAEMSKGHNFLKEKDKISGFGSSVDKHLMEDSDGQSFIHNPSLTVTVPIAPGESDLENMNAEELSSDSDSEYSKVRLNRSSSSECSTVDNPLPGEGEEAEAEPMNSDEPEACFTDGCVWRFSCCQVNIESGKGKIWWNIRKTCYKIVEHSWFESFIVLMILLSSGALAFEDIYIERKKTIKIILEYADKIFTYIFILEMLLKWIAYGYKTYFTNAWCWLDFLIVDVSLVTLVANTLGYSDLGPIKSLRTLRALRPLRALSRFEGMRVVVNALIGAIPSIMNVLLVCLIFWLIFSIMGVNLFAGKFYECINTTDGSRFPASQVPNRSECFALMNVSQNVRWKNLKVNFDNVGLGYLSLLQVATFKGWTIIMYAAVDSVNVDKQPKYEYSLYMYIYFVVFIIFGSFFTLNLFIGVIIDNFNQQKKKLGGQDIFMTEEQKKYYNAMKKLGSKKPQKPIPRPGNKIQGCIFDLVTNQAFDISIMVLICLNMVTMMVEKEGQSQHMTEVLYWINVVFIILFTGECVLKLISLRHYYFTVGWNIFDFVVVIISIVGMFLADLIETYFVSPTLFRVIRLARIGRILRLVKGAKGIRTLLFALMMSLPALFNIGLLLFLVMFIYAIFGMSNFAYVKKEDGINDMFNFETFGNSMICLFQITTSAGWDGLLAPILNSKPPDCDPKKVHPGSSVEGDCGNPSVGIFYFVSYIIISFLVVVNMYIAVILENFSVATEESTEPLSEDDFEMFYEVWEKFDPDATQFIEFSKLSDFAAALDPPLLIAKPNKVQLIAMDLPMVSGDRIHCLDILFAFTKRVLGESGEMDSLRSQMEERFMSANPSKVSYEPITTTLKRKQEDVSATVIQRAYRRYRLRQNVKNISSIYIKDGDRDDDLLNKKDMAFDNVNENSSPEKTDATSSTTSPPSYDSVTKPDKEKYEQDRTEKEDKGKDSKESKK

On to `C#CC[C@H](N)C(=O)NCCOCCOCCOCCOCCC(=O)NCCCC[C@@H]1NC(=O)[C@H](CCCNC(=N)N)NC(=O)[C@H](CCCCN)NC(=O)[C@H](CO)NC(=O)[C@H](CC(=O)O)NC(=O)[C@@H]2CSSC[C@@H]3NC(=O)[C@H](CCCNC(=N)N)NC(=O)[C@H](CC(C)C)NC(=O)CNC(=O)[C@H](CCC(=O)O)NC(=O)[C@H](CSSC[C@H](NC(=O)[C@H](Cc4ccc(O)cc4)NC(=O)[C@@H](N)CC#N)C(=O)N[C@@H](CCC(N)=O)C(=O)N[C@@H](CCCCN)C(=O)N[C@@H](Cc4c[nH]c5ccccc45)C(=O)N[C@@H](CCCC)C(=O)N[C@@H](Cc4c[nH]c5ccccc45)C(=O)N[C@@H]([C@@H](C)O)C(=O)N2)NC(=O)[C@H](CSSC[C@@H](C(=O)N[C@@H](CCCNC(=N)N)C(=O)N[C@@H](CCCCN)C(=O)N[C@H](C(=O)N[C@H](C(N)=O)[C@@H](C)CC)[C@@H](C)CC)NC(=O)[C@H](Cc2c[nH]c4ccccc24)NC(=O)[C@H](CC(C)C)NC(=O)[C@H](CCCCN)NC3=O)NC1=O` [compound 380], for which, in experiment [1] (ratio of PX tonic IC50 values), the Nav1.4/Nav1.7 is recorded as 0. Further, in experiment [2] (ratio of PX tonic IC50 values), the Nav1.5/Nav1.7 turned out to be 0.

For `CCCC[C@@H]1NC(=O)[C@H](Cc2c[nH]c3ccccc23)NC(=O)[C@H](CCCCN)NC(=O)[C@H](CCC(N)=O)NC(=O)[C@@H](NC(=O)[C@H](Cc2ccc(O)cc2)NC(=O)[C@@H](N)Cc2cn(CCOCCOCCOCCOCCOCCOCCOCCOCCOCCOCCOCCOCCOCCOCCOCCOCCOCCOCCOCCOCCOCCOCCOCCNC(=O)c3cc(CNC(=O)CSCc4ccccc4)cc(C(=O)NCCOCCOCCOCCOCCOCCOCCOCCOCCOCCOCCOCCOCCOCCOCCOCCOCCOCCOCCOCCOCCOCCOCCOCCn4cc(C[C@H](N)C(=O)N[C@@H](Cc5ccc(O)cc5)C(=O)N[C@H]5CSSC[C@@H]6NC(=O)[C@@H]7CSSC[C@@H](C(=O)N[C@@H](CCCNC(=N)N)C(=O)N[C@@H](CCCCN)C(=O)N[C@H](C(=O)N[C@H](C(N)=O)[C@@H](C)CC)[C@@H](C)CC)NC(=O)[C@H](Cc8c[nH]c9ccccc89)NC(=O)[C@H](CC(C)C)NC(=O)[C@H](CCCCN)NC(=O)[C@H](CSSC[C@H](NC(=O)[C@H]([C@@H](C)O)NC(=O)[C@H](Cc8c[nH]c9ccccc89)NC(=O)[C@H](CCCC)NC(=O)[C@H](Cc8c[nH]c9ccccc89)NC(=O)[C@H](CCCCN)NC(=O)[C@H](CCC(N)=O)NC5=O)C(=O)N[C@@H](CC(=O)O)C(=O)N[C@@H](CO)C(=O)N[C@@H](CCCCN)C(=O)N[C@@H](CCCNC(=N)N)C(=O)N[C@@H](C)C(=O)N7)NC(=O)[C@H](CCCNC(=N)N)NC(=O)[C@H](CC(C)C)NC(=O)CNC(=O)[C@H](CCC(=O)O)NC6=O)nn4)c3)nn2)CSSC[C@@H]2NC(=O)[C@@H]3CSSC[C@@H](C(=O)N[C@@H](CCCNC(=N)N)C(=O)N[C@@H](CCCCN)C(=O)N[C@H](C(=O)N[C@H](C(N)=O)[C@@H](C)CC)[C@@H](C)CC)NC(=O)[C@H](Cc4c[nH]c5ccccc45)NC(=O)[C@H](CC(C)C)NC(=O)[C@H](CCCCN)NC(=O)[C@H](CSSC[C@H](NC(=O)[C@H]([C@@H](C)O)NC(=O)[C@H](Cc4c[nH]c5ccccc45)NC1=O)C(=O)N[C@@H](CC(=O)O)C(=O)N[C@@H](CO)C(=O)N[C@@H](CCCCN)C(=O)N[C@@H](CCCNC(=N)N)C(=O)N[C@@H](C)C(=O)N3)NC(=O)[C@H](CCCNC(=N)N)NC(=O)[C@H](CC(C)C)NC(=O)CNC(=O)[C@H](CCC(=O)O)NC2=O` [Homodimeric Conjugate No. 2, Bis-{Atz(PEG23*)-[Nle6]JzTx-V(1-29)}-5-((2-(benzylthio)acetamido)methyl)isophthalamide], the Nav1.4/Nav1.7 in experiment [1] (ratio of PX IC50 values) was 5 and 3. The IC50 in experiment [2] (PatchXpress, * = at high concentrations compound would wash off slowly or not at all, read-out: PX hNav1.5 Tonic IC50) was 720 nM and 1180 nM.

Regarding `CSCC[C@@H]1NC(=O)[C@H](Cc2c[nH]c3ccccc23)NC(=O)[C@H](CCCCN)NC(=O)[C@H](CCC(N)=O)NC(=O)[C@@H](NC(=O)[C@@H](N)Cc2ccc(O)cc2)CSSC[C@@H]2NC(=O)[C@@H]3CSSC[C@@H](C(=O)N[C@@H](CCCCN)C(=O)N[C@@H](Cc4ccc(O)cc4)C(=O)N[C@@H](CC(N)=O)C(=O)N[C@@H](CC(C)C)C(N)=O)NC(=O)[C@H](Cc4c[nH]c5ccccc45)NC(=O)[C@H](CC(C)C)NC(=O)[C@H](CCC(=O)O)NC(=O)[C@H](CSSC[C@H](NC(=O)[C@H]([C@@H](C)O)NC(=O)[C@H](Cc4c[nH]c5ccccc45)NC1=O)C(=O)N[C@@H](CC(=O)O)C(=O)N[C@@H](CO)C(=O)N[C@@H](CCC(=O)O)C(=O)N[C@@H](CCCNC(=N)N)C(=O)N[C@@H](CCCCN)C(=O)N3)NC(=O)[C@H](C(C)C)NC(=O)[C@H](Cc1ccc(O)cc1)NC(=O)CNC(=O)[C@H](CCC(=O)O)NC2=O` [compound 48], the Nav1.4/Nav1.7 in experiment [1] is on record as 3. For the same compound, in experiment [2], the Nav1.5/Nav1.7 came out at 61.

Take `C#CC[C@H](N)C(=O)NCCCC[C@@H]1NC(=O)[C@H](CCCNC(=N)N)NC(=O)[C@H](CCCCN)NC(=O)[C@H](CO)NC(=O)[C@H](CC(=O)O)NC(=O)[C@@H]2CSSC[C@@H]3NC(=O)[C@H](CCC(=O)O)NC(=O)[C@H](CC(C)C)NC(=O)CNC(=O)[C@H](CCC(=O)O)NC(=O)[C@H](CSSC[C@H](NC(=O)[C@H](Cc4ccc(O)cc4)NC(=O)[C@@H](N)CC#N)C(=O)N[C@@H](CCC(N)=O)C(=O)N[C@@H](CCCCN)C(=O)N[C@@H](Cc4c[nH]c5ccccc45)C(=O)N[C@@H](CCCC)C(=O)N[C@@H](Cc4c[nH]c5ccccc45)C(=O)N[C@@H]([C@@H](C)O)C(=O)N2)NC(=O)[C@H](CSSC[C@@H](C(=O)N[C@@H](CCCNC(=N)N)C(=O)N[C@@H](CCCCN)C(=O)N[C@H](C(=O)N[C@H](C(N)=O)[C@@H](C)CC)[C@@H](C)CC)NC(=O)[C@H](Cc2c[nH]c4ccccc24)NC(=O)[C@H](CC(C)C)NC(=O)[C@H](CCCCN)NC3=O)NC1=O` [compound 393]: the half-inhibitory concentration (IC50) was greater than 100 nM in experiment [3] (tonic block) and greater than 10000 nM in experiment [1] (tonic block).

For the compound `CCCC[C@@H]1NC(=O)[C@H](Cc2c[nH]c3ccccc23)NC(=O)[C@H](CCCCN)NC(=O)[C@H](CCC(N)=O)NC(=O)[C@@H](NC(=O)[C@@H](N)Cc2ccc(O)cc2)CSSC[C@@H]2NC(=O)[C@@H]3CSSC[C@@H](C(=O)N[C@@H](CCCNC(=N)N)C(=O)N[C@@H](CCCCN)C(=O)N[C@@H](CCC(=O)O)C(=O)N[C@H](C(N)=O)[C@@H](C)CC)NC(=O)[C@H](Cc4c[nH]c5ccccc45)NC(=O)[C@H](CC(C)C)NC(=O)[C@H](CCCCN)NC(=O)[C@H](CSSC[C@H](NC(=O)[C@H]([C@@H](C)O)NC(=O)[C@H](Cc4c[nH]c5ccccc45)NC1=O)C(=O)N[C@@H](CC(=O)O)C(=O)N[C@@H](CO)C(=O)N[C@@H](CCCCN)C(=O)N[C@@H](CCCNC(=N)N)C(=O)N[C@@H](C)C(=O)N3)NC(=O)[C@H](CCCNC(=N)N)NC(=O)[C@H](CC(C)C)NC(=O)CNC(=O)[C@H](Cc1cn(CCCOCCOCCOCCOCCOCCOCCOCCOCCOCCOCCN)nn1)NC2=O` [compound 406], the IC50 in experiment [3] (setting [4]) was found to be 5.88 nM; in experiment [1] (setting [4]) it was 65.9 nM. For the same compound, the Nav1.4/Nav1.7 in experiment [1] (ratio of PX IC50 values) was 11.

Regarding `C#CC[C@@H]1NC(=O)[C@@H]2CSSC[C@H](NC(=O)[C@H](Cc3ccc(O)cc3)NC(=O)[C@@H](N)CC#N)C(=O)N[C@@H](CCC(N)=O)C(=O)N[C@@H](CCCCN)C(=O)N[C@@H](Cc3c[nH]c4ccccc34)C(=O)N[C@@H](CCCC)C(=O)N[C@@H](Cc3c[nH]c4ccccc34)C(=O)N[C@@H]([C@@H](C)O)C(=O)N[C@H]3CSSC[C@H](NC(=O)[C@H](CCC(=O)O)NC(=O)[C@H](CC(C)C)NC(=O)CNC1=O)C(=O)N[C@@H](CCCCN)C(=O)N[C@@H](CC(C)C)C(=O)N[C@@H](Cc1c[nH]c4ccccc14)C(=O)N[C@H](C(=O)N[C@@H](CCCNC(=N)N)C(=O)N[C@@H](CCCCN)C(=O)N[C@@H](Cc1ccc(O)cc1)C(=O)N[C@H](C(N)=O)[C@@H](C)CC)CSSC[C@H](NC(=O)[C@H](C)NC(=O)[C@H](CCCNC(=N)N)NC(=O)[C@H](CCCCN)NC(=O)[C@H](CO)NC(=O)[C@H](CC(=O)O)NC3=O)C(=O)N2` [compound 397], the half-inhibitory concentration (IC50) in experiment [3] (tonic block) stood at 87.1 nM; in experiment [1] (tonic block), 1760 nM. For the same compound, the Nav1.4/Nav1.7 in experiment [1] (ratio of PX tonic IC50 values) is recorded as 20.

Consider `C#CC[C@H](N)C(=O)NCCCC[C@@H]1NC(=O)[C@H](CCCNC(=N)N)NC(=O)[C@H](CCCCN)NC(=O)[C@H](CO)NC(=O)[C@H](CC(=O)O)NC(=O)[C@@H]2CSSC[C@@H]3NC(=O)[C@H](CCCNC(=N)N)NC(=O)[C@H](CC(C)C)NC(=O)CNC(=O)[C@H](CCC(=O)O)NC(=O)[C@H](CSSC[C@H](NC(=O)[C@H](Cc4ccc(O)cc4)NC(=O)[C@@H](N)CCC)C(=O)N[C@@H](CCC(N)=O)C(=O)N[C@@H](CCCCN)C(=O)N[C@@H](Cc4c[nH]c5ccccc45)C(=O)N[C@@H](CCCC)C(=O)N[C@@H](Cc4c[nH]c5ccccc45)C(=O)N[C@@H]([C@@H](C)O)C(=O)N2)NC(=O)[C@H](CSSC[C@@H](C(=O)N[C@@H](CCCNC(=N)N)C(=O)N[C@@H](CCCCN)C(=O)N[C@@H](CCC(=O)O)C(=O)N[C@H](C(N)=O)[C@@H](C)CC)NC(=O)[C@H](Cc2c[nH]c4ccccc24)NC(=O)[C@H](CC(C)C)NC(=O)[C@H](CCCCN)NC3=O)NC1=O` [compound 435], for which the IC50 in experiment [3] (tonic block) stood at 2.19 nM; in experiment [1] (tonic block), 217 nM. The Nav1.4/Nav1.7 in experiment [1] (ratio of PX tonic IC50 values) was determined as 99.

Consider `C#CC[C@H](N)C(=O)NCCCC[C@@H]1NC(=O)[C@H](CCCNC(=N)N)NC(=O)[C@H](CCCCN)NC(=O)[C@H](CO)NC(=O)[C@H](CC(=O)O)NC(=O)[C@@H]2CSSC[C@@H]3NC(=O)[C@H](CCC(=O)O)NC(=O)[C@H](CC(C)C)NC(=O)CNC(=O)[C@H](CCC(=O)O)NC(=O)[C@H](CSSC[C@H](NC(=O)[C@H](Cc4ccc(O)cc4)NC(=O)[C@@H](N)CC#N)C(=O)N[C@@H](CCC(N)=O)C(=O)N[C@@H](CCCCN)C(=O)N[C@@H](Cc4c[nH]c5ccccc45)C(=O)N[C@@H](CCCC)C(=O)N[C@@H](Cc4c[nH]c5ccccc45)C(=O)N[C@@H]([C@@H](C)O)C(=O)N2)NC(=O)[C@H](CSSC[C@@H](C(=O)N[C@@H](CCCNC(=N)N)C(=O)N[C@@H](CCCCN)C(=O)N[C@@H](Cc2ccc(O)cc2)C(=O)N[C@H](C(N)=O)[C@@H](C)CC)NC(=O)[C@H](Cc2c[nH]c4ccccc24)NC(=O)[C@H](CC(C)C)NC(=O)[C@H](CCCCN)NC3=O)NC1=O` [compound 394], for which the figures for the IC50 in experiment [3] (tonic block) and in experiment [1] (tonic block) were 0.05 nM and 964 nM, respectively.

The values are drawn from patent publication US9636418B2 (priority 2013, dated 2017).
